Laboratory results from patent US20020187126A1, “Methods for viral oncoapoptosis in cancer therapy” (priority 2001, published 2002).

Tests used:
primary MEF cells = experiment: Phase-contrast microscopy and Hoechst staining of infected or treated MEF cells; assay type: cell-based, mouse; settings: Hoechst dye, 15 h
From the text: Cells and viruses. All cells were maintained in Dulbecco's modified Eagle's medium (DMEM) containing 5% fetal bovine serum. Human larynx epidermoid carcinoma HEp-2 (Moore, Cancer Res.1955, 15:598-605), epithelial cervical carcinoma HeLa S3 (Puck, et al, J. Exp. Med.1956, 103:273-284, osteosarcoma 143B (Post and Roizman, Cell 1981, 25:227-32), and African green monkey kidney Vero (Yasumura and Kawakita, Nippon Rinsho 1963, 21:1209) cells were obtained from the American Type Culture Collection (Rockville, Md. V2.2 is a derivative Vero cell line, which carries a stably integrated copy of the ICP27 gene (Rice and Knipe, J Virol. 1990, 64:1704-15). Adenovirus type 5 transformed human primary embryonal kidney 293 (Graham et al., J Gen Virol. 1977, 36:59-74) and SV40 T antigen expressing 293T cells were obtained from the ATCC. […]
To assess whether rdHSV-1 triggers apoptosis in infected MEF, cell morphologies were documented by phase-contrast microscopy and condensed nuclei were visualized following staining with a fluorescent Hoechst dye. […] Cells were analyzed 15 h post-infection. […] Few, if any, cells with condensed nuclei were detected following infection with either rdHSV-1 strain. […]

[1] = tested on: primary human foreskin fibroblast (HFF) cells; experiment: DNA laddering by ethidium bromide staining in HFF cells; assay type: cell-based; settings: low molecular weight DNA
Experimental: (§1) Biochemical induction of apoptosis. Cell apoptosis was induced by the addition of staurosporine (Calbiochem, San Diego, Calif.) to the medium at a final concentration of either 1 or 2 μM. Cells were maintained in the presence of staurosporine for 24 h. TNF (Sigma) was added directly to medium at a final concentration of 10 ng/ml in combination with cycloheximide (Sigma) at a final concentration of 10 μg/ml for 24 h.
DNA laddering by ethidium bromide staining. Low molecular weight DNA was isolated from cells as described (Koyama and Miwa, J. Virol. 1997, 71:2567; Aubert and Blaho, J. Virol. 1999, 73:2803). The DNA samples were subjected to electropheresis in a horizontal 1.5% agarose gel, followed by staining with 10 μg/ml ethidium bromide. DNA was visualilzed by UV light transillumination and photographed with Polaroid 67 film.
(§2) The transformed cell lines we analyzed above were of human origin. Thus, it was necessary to confirm our MEF cell results using a primary human cell line. We assessed the p53 status, the susceptibility of rdHSV-1 infection, and the ability to undergo apoptosis of primary human foreskin fibroblast (HFF) cells by immunoblotting, Hoechst staining, and DNA laddering assays. […] Finally, we stained the infected and treated HFF cells with Hoechst DNA dye and visualized cellular and nuclear morphologies by fluorescence and phase-contrast microscopy. […]

[2] = tested on: primary human foreskin fibroblast (HFF) cells; experiment: Hoechst staining, fluorescence and phase-contrast microscopy of HFF cells; assay type: cell-based; settings: Hoechst DNA dye
Experimental: as §1
Microscopic analyses and computer graphics. Infected cell phenotypes were documented by phase-contrast light microscopy using an Olympus CK2/PM-10AK3 system with an attached 35 mm camera. For analyses of chromatin condensation, cells were grown and infected (as described above) in a 35-mm plate. At 24 hours post infection, the cells were incubated with the DNA dye Hoechst 33258 (Sigma) at a final concentration of 5 μg/ml in PBS for 15 minutes at 37° C. […]
as §2, with “Thus, it was necessary to confirm our MEF cell results using a primary human cell line.” left out

293 cells = experiment: Immunoblots for PARP, caspase-3 and p53 in infected or treated 293 cells; assay type: cell-based, human
Experimental: Cells and viruses. All cells were maintained in Dulbecco's modified Eagle's medium (DMEM) containing 5% fetal bovine serum. […]
Extraction of cells and denaturing gel electrophoresis. Whole extracts of cells were obtained as previously described (Aubert and Blaho, J Virol. 1999, 73:2803-2813; Aubert et al., J. Virol. 1999, 73:10359-70) Protein concentrations were measured using a modified Bradford assay (Biorad) as recommended by the vendor. […]
The results above indicate that cells whose p53 is undermodified are susceptible to apoptosis triggered by rdHSV-1 while those which accumulate phosphorylated p53 are resistant. To confirm the prediction that the amount of phosphorylated p53 present in a given cell is an accurate indicator of whether the cell will be killed by an rdHSV-1, 293 cells were analyzed. […]

CN[C@@H]1C[C@H]2O[C@@](C)([C@@H]1OC)n1c3ccccc3c3c4c(c5c6ccccc6n2c5c31)C(=O)NC4 [staurosporine]
cells with condensed nuclei / chromatin (primary MEF cells): significant number of small apoptotic cells which contained condensed chromatin | DNA laddering / fragmentation [1]: DNA fragmentation that migrated as a smear | condensed chromatin / features of apoptosis [2]: showed features indicative of apoptosis | signs of apoptosis (PARP processing) (293 cells; environmental stimulators, double dose of STS): no signs of apoptosis were detected | apoptosis (PARP and caspase-3 processing) (293 cells; presence or absence of CHX): did not undergo apoptosis
